Experimental findings from patent US20110071147A1, “4-AMINO-THIENO[3,2-C]PYRIDINE-7-CARBOXYLIC ACID AMIDES” (priority 2004, published 2011) are described below.

The term IC50 denotes the concentration that gives 50% inhibition.

The target of one assay is T1, KDR (Homo sapiens, UniProt P35968).
T1 construct: EEE tag
In words: KDR kinase HTRF assay. Format: biochemical. Particulars: recombinant EEE-tagged KDR, 0.3 mM ATP. On the procedure:
(§1) To determine inhibition of KDR and FGFR, kinase assays were conducted using an HTRF (Homogeneous Time Resolved Fluorescence) assay. This assay is described in A. J. Kolb et. al., Drug Discovery Today, 1998, 3(7), p 333.
Prior to kinase reaction, recombinant EEE-tagged KDR was activated in the presence of activation buffer (50 mM HEPES, pH 7.4, 1 mM DTT, 10% glycerol, 150 mM NaCl, 0.1 mM EDTA, 26 mM MgCl2, and 4 mM ATP). The enzyme was incubated at 4° C. for 1 hour.
Kinase activity assays were performed in 96-well polypropylene plates (Falcon) with a total volume of 90 μL in each well. Each well contained 1 μM KDR substrate (Biotin-EEEEYFELVAKKKK), 1 nM activated KDR, and a test compound with one of 8 assay concentrations ranging from 100 μM to […] (1:5 serial dilution). The kinase activity assay was done in the presence of 100 mM HEPES, pH 7.4, 1 mM DTT, 0.1 mM Na2VO4, 25 mM MgCl2, 50 mM NaCl (from KDR stock solution), 1% DMSO (from compound), 0.3 mM ATP (at Km concentration) and 0.02% BSA. The reaction was incubated at 37° C. for 30 minutes. To stop the KDR reaction, 72 μL of reaction mixture was transferred into a STOP plate containing 18 μL of revelation buffer (20 mM EDTA, 50 mM HEPES, pH 7.4, 0.02% BSA, 10 nM Eu-labelled anti-pY antibody (final conc. 2 nM), and 100 nM streptavidin (final conc. 20 nM)). After mixing, 35 μL of solution was transferred into duplicate wells of a 384-well black plate (Costar), and read at 615/665 nm on a Wallac Victor 5 reader.
(§2) Compound IC50 values were determined from duplicate sets of data, and calculated by using Excel and fitting data to equation Y=[(a−b)/{1+(X/c)^d]+b, where a and b are enzyme activity in the presence of no test inhibitor compound and an infinite amount of inhibitor test compound, respectively, c is the IC50 and d is the hill constant of the compound response. The IC50 value is the concentration of test compound that reduces by 50% the enzyme activity under the test conditions described.
In general terms: Time-resolved FRET reads energy transfer from a long-lived donor to a nearby acceptor.

The subject of another assay is FGF-stimulated HUVEC. Description: FGF-stimulated HUVEC proliferation assay (BrdU). Format: cell-based. Conditions: Homo sapiens, FGF 5 ng per mL, BrdU ELISA, read-out: FGF-HUVEC (IC50, BrdU labeling). As to the method: (§3) The antiproliferative activity of test compounds of this invention in cell-based assays was evaluated by BrdU assay using the BrdU kit (Roche Biochemicals 1-647-229). Human umbilical vein endothelial cells (HUVEC, Clonetics CC-2519) were cultured in EGM-2 (Clonetics CC-3162) medium and seeded at 10000 cells per well in a volume of 200 μL of EGM-2 (Clonetics CC-3162) media in a 96-well flat bottom plates (Costar 3595) overnight. After 24 hours of growth at 37° C. with 5% CO2, the incubation media was removed slowly by aspiration and the content of each well was washed with 300 μL pre-warmed EBM-2 (Clonetics CC-3156) containing 50 μg per mL of gentamycin and 50 ng per mL of amphotercin-B (Clonetics CC-4083). […]
(§4) After 24 hour exposure to the test compounds, the cells were labeled with BrdU (Roche Biochemicals 1-647-229), by adding 20 μL per well of BrdU labeling reagent that has been diluted (1:100) in serum starvation medium. […] The plates were read at 450 nm with reference wavelength of 650 nm. The percent inhibition for each test compound was calculated by subtracting the absorbency of the blank (no cells) wells from all wells, then subtracting the division of the average absorbency of each test duplicate by the average of the controls from 1. […] The IC50 is determined from the linear regression of a plot of the logarithm of the concentration versus percent inhibition.
A general note: Uptake of a labelled nucleoside into DNA is a usual measure of proliferation.

The test system of the next assay is VEGF-stimulated HUVEC. Description: VEGF-stimulated HUVEC proliferation assay (BrdU). Particulars: Homo sapiens, VEGF 20 ng per mL, BrdU ELISA, read-out: VEGF-HUVEC (IC50, BrdU labeling). Format: cell-based. On the procedure: as §3, §4
The next assay concerns the target T2, FGFR.
T2 construct: fused on or other part: GST tag
In words: FGFR kinase HTRF assay. Format: biochemical. Particulars: GST-tagged FGFR, 10 μM ATP. As to the method: as §1
FGFR activity assays were carried out as described above for the KDR activity assay with the following differences. GST-tagged FGFR enzyme was activated at room temperature for 1 hour in the following activation buffer: 100 mM HEPES, pH 7.4, 50 mM NaCl, 20 mM MgCl2, and 4 mM ATP. The kinase activity assay was performed with 1 μM substrate (Biotin-EEEEYFELV), 1.5 nM activated FGFR, and test compound in the presence of 100 mM HEPES, 1 mM DTT, 0.4 mM MgCl2, 0.4 mM MnCl2, 50 mM NaCl, 1% DMSO, 10 μM ATP (Km=8.5 μM for FGFR), 0.1 mM Na2VO4, and 0.02% BSA, in a total volume of 90 μL. The rest of the assay was performed in the same manner as KDR assay.
as §2

Counter-ions that a name gives are not always drawn.

T1 sequence (P35968 20-1356): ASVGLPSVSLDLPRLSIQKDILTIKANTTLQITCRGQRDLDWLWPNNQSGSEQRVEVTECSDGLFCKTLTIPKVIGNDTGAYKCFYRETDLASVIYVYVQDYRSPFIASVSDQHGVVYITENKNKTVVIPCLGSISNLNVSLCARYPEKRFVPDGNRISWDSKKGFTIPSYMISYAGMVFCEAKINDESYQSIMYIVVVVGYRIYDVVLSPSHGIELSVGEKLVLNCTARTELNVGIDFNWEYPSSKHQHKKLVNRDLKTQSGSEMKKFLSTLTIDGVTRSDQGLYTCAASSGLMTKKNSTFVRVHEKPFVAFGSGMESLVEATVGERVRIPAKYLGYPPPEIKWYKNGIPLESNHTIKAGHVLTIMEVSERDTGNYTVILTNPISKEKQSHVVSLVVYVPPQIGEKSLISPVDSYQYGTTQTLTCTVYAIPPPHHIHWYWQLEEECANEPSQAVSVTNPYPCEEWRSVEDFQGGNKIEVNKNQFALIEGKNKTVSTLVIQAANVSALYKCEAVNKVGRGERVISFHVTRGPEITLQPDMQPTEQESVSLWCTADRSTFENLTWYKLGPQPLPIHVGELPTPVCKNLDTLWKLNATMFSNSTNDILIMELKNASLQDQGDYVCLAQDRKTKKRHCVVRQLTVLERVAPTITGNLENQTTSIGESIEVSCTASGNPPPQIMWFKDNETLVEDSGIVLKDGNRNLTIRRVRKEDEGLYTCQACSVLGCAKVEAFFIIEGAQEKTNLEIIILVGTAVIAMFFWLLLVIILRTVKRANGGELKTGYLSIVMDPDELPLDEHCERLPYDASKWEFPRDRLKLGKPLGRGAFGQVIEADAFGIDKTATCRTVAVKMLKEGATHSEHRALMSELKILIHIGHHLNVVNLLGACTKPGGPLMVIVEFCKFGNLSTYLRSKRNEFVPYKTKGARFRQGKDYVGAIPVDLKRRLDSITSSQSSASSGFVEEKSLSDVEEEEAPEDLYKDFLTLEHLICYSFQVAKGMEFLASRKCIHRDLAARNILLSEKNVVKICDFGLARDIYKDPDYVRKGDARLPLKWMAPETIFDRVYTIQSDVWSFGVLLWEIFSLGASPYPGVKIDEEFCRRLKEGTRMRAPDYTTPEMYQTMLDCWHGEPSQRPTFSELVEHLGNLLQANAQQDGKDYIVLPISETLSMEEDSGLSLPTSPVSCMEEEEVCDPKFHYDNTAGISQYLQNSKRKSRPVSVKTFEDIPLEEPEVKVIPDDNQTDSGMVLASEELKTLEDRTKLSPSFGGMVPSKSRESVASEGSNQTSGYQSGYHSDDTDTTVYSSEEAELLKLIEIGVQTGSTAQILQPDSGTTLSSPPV

As to `COc1ccc(OCc2csc3c(C(=O)NCCO)cnc(N)c23)c(Cl)c1` [Example 2, 4-Amino-3-(2-chloro-4-methoxy-phenoxymethyl)-thieno[3,2-c]pyridine-7-carboxylic acid (2-hydroxy-ethyl)-amide], the IC50 at KDR is 509 nM.

On to `Nc1ncc(C(=O)NCCO)c2scc(COc3ccc(Br)cc3)c12` [Example 4a, 4-Amino-3-(4-bromo-phenoxymethyl)-thieno[3,2-c]pyridine-7-carboxylic acid (2-hydroxy-ethyl)-amide], for which the IC50 in the assay on FGF-stimulated HUVEC was 2760 nM; in the assay on VEGF-stimulated HUVEC, 264 nM; against FGFR, 72.4 nM; at KDR, 20 nM.

In the case of `Nc1ncc(C(=O)NCCN2CCOCC2)c2scc(COc3ccc(Br)cc3)c12` [Example 13b, 4-Amino-3-(4-bromo-phenoxymethyl)-thieno[3,2-c]pyridine-7-carboxylic acid (2-morpholin-4-yl-ethyl)-amide hydrochloride salt], the concentration for half-maximal inhibition (IC50) amounted to 627 nM in the assay with FGF-stimulated HUVEC, 204 nM with VEGF-stimulated HUVEC, 180 nM on FGFR and 58.4 nM on KDR.
